Results on 2 compounds are retold here after publication PMC6154719 (Molecules : A Journal of Synthetic Chemistry and Natural …, 2017).

Holding throughout (type): in vitro ADME
The subject of one data set is CYP3A4/5. The data set can be described thus: CYP3A4/5 midazolam 1′-hydroxylation in human liver microsomes (HPLC). The conditions noted are these: substrate midazolam, n = 2. The protocol: (§1) Enzyme activities were assayed in human and rat liver cytosolic and microsomal fractions. The enzyme assays (each performed in 4–8 replicates) were repeated three times (HPLC measurement of CYP activities was repeated only twice, Table 3). Inhibition studies were carried out by incubation of specific substrates in the presence of sesquiterpenes (in the range 0–100 µM).
(§2) Enzyme activities of individual CYP forms were measured according to established protocols. The following microsomal CYP activities were tested: CYP2A6, coumarin 7-hydroxylation; CYP2B6, 7-ethoxy-4-(trifluoromethyl)coumarin 7-deethylation, CYP2C9, diclofenac 4′-hydroxylation, CYP2C19 assay, S-mephenytoin 4′-hydroxylation, CYP2D6 on bufuralol 1′-hydroxylation, CYP2E1, chlorzoxazone 6-hydroxylation and CYP3A4, testosterone 6β-hydroxylation, and midazolam 1′-hydroxylation. Activities were measured using the Prominence HPLC system (Shimadzu, Kyoto, Japan), equipped with a LiChroCART 250-4 LiChrospher 100 RP-18 column or Chromolith®HighResolution RP-18 end-capped column (Merck, Darmstadt, Germany) and UV or fluorescence detection, according to the cited literature. […] CYP1A2, 7-ethoxyresorufin O-deethylation, and CYP3A4/2B6 (human), CYP2B1 (rat), benzyloxyresorufin O-debenzylation were measured using the microplate reader Tecan Infinite M200 (Tecan Group; Mannedorf, Switzerland). […]
A general note: Microsomes from liver hold many membrane-bound enzymes, among them those of drug oxidation.

The subject of data set [1] is CYP2B/3A (CYP2B1, BROD activity). Kind of data set: CYP2B/3A (BROD activity, benzyloxyresorufin O-debenzylation) in rat liver microsomes. The conditions noted are these: probe benzyloxyresorufin (O-debenzylation), 0.5-5.0 µM; rat liver microsomes, BROD activity. As for the experimental part: as §1
(§3) Enzyme activities of individual CYP forms were measured according to established protocols. The following microsomal CYP activities were tested: CYP2A6, coumarin 7-hydroxylation; CYP2B6, 7-ethoxy-4-(trifluoromethyl)coumarin 7-deethylation, CYP2C9, diclofenac 4′-hydroxylation, CYP2C19 assay, S-mephenytoin 4′-hydroxylation, CYP2D6 on bufuralol 1′-hydroxylation, CYP2E1, chlorzoxazone 6-hydroxylation and CYP3A4, testosterone 6β-hydroxylation, and midazolam 1′-hydroxylation. Activities were measured using the Prominence HPLC system (Shimadzu, Kyoto, Japan), equipped with a LiChroCART 250-4 LiChrospher 100 RP-18 column or Chromolith®HighResolution RP-18 end-capped column (Merck, Darmstadt, Germany) and UV or fluorescence detection, according to the cited literature. Further incubation details are described either in the corresponding references, as well as in the papers from this laboratory e.g., [42, 43, 44]. CYP1A2, 7-ethoxyresorufin O-deethylation, and CYP3A4/2B6 (human), CYP2B1 (rat), benzyloxyresorufin O-debenzylation were measured using the microplate reader Tecan Infinite M200 (Tecan Group; Mannedorf, Switzerland).
(§4) Sesquiterpenes CNER, TNER and FAR, non-volatile liquids, were pipetted, and proper concentration was calculated according to density. All compounds were dissolved in DMSO. The final solvent concentration in the inhibition assays was 1%, which had no effect on the enzyme activity (data not shown). Non-enzymatic interference of sesquiterpenes with some compounds in the reaction mixtures (e.g., fluorescence enhancing or quenching) was considered and excluded. All experiments were performed in three replicates, if not stated otherwise.
(§5) CNER, TNER and FAR at a fixed concentration of 100 µM were screened for inhibition of cytosolic AKR1A1, AKR1C, CBR1, NQO1, SULT, and GST, and microsomal CYPs and UGT. The degree of inhibition caused by sesquiterpenes was compared with non-inhibited control reactions, which contained solvent without sesquiterpenes.
(§6) The concentration of sesquiterpenes required for 50% inhibition of enzyme activity, the IC50 value, was determined. Their final concentrations in the reaction mixture were proposed to cover the entire inhibitory range of these compounds (1–100 µM). The IC50 values for each sesquiterpene were determined by plotting sigmoidal dose response curves of specific enzyme activity vs. logarithm of sesquiterpene concentration using GraphPad Prism version 6.07 for Windows (GraphPad Software Inc., La Jolla, CA, USA).
(§7) The kinetic inactivation study of the CYP1A2 (EROD activity) and CYP2B/3A (BROD activity), both in rat and human, with TNER, was performed to find out the mechanism of enzyme inhibition by this sesquiterpene. Mechanism of EROD and BROD inhibition was tested at the final ethoxyresorufin or benzyloxyresorufin concentrations 0.5–5.0 µM. The concentration of TNER was 5.0 µM.
(§8) Experimental data were fitted to the Michaelis-Menten equation, basic kinetic parameters were determined using the program GraphPad Prism version 6.07 for Windows. The type of inhibition was estimated using a Lineweaver-Burk (double-reciprocal) plot.

Data set [2] relates to CYP2B/3A (CYP3A4/2B6, BROD activity). The data set can be described thus: CYP2B/3A (BROD activity, benzyloxyresorufin O-debenzylation) in human liver microsomes. Conditions: probe benzyloxyresorufin (O-debenzylation), 0.5-5.0 µM; human liver microsomes, BROD activity. The protocol:
as §1, §3, §4, §5, §6, §7, §8

The target in the next data set is T1, CYP2C19 (Homo sapiens, UniProt P33261).
T1 construct: other CYP-mediated activities in human liver microsomes; from tissue; host or cells: human liver microsomal fraction
T1 sequence (P33261 whole entry): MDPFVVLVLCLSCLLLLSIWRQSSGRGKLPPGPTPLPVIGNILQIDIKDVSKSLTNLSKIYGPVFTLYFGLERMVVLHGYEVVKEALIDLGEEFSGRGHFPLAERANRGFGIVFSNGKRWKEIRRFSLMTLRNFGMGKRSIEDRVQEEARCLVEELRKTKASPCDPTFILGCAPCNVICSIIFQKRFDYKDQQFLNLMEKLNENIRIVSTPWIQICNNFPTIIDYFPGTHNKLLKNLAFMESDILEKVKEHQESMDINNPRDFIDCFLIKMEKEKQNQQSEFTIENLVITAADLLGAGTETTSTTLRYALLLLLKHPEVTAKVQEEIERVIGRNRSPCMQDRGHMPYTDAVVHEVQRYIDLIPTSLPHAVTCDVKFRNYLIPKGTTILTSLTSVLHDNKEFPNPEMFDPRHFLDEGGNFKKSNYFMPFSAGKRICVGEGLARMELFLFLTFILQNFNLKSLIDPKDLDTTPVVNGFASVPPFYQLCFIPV
The data set can be described thus: CYP2C19 S-mephenytoin 4′-hydroxylation in human liver microsomes (HPLC). Conditions: substrate S-mephenytoin, n = 2. The protocol:
as §1, §2

One may read the IC50 as the concentration at which inhibition is half-maximal. Low readings indicate higher potency, high ones lower potency. The term Ki denotes a measure of affinity in units of concentration, obtained from inhibition or displacement.

For `C=CC(C)(O)CC/C=C(/C)CCC=C(C)C` (stereo not drawn) [CNER, cis-nerolidol], the half-maximal inhibitory concentration (IC50) with CYP3A4/5 (human, liver microsomes, probe midazolam) is 66 µM; in the data set on CYP3A4/5 it was 66.1 ± 30.5 µM.

On to `C=CC(C)(O)CC/C=C(\C)CCC=C(C)C` (stereo not drawn) [TNER, trans-nerolidol], for which the values for the Ki in data set [1] and in data set [2] were 550 ± 110 nM and 2410 ± 330 nM, respectively. Also, it took 76.4 ± 52.1 µM to reach half-maximal inhibition against CYP2C19 (IC50).
